From patent US10550143B2, “C,O-spiro aryl glycoside compounds, preparation therefor and use thereof” (SHANGHAI INSTITUTE OF MATERIA MEDICA, CHINESE ACADEMY OF …, priority 2015, dated 2020)

Experiments:
db/db mice [1] = test: Chronic administration, glucose-stimulated insulin release in db/db mice; format: in vivo, mouse; conditions: glucose-stimulated insulin release, chronic administration
Experimental: (§1) Oral gavage administrated, daily dose volume was 10 mL/kg, administered once daily. Administration time was 9: 00-10:00 daily, and the administration period was 5 weeks.
The fourth week after administration, the mice were starved for 6 hours after morning administration and were orally administrated with glucose (1.5 g/kg), and blood was collected from the tail (10 μL EDTA+20 μL tail blood). Centrifuged and the supernatant was taken, stored at −20° C. for insulin test.

db/db mice [2] = test: Chronic administration, fasting blood glucose in db/db mice; format: in vivo, mouse; conditions: for fasting blood glucose Pre: before administration; for Hypoglycemic rate % week 1 / Hypoglycemic rate % week 2 / Hypoglycemic rate % week 3 / Hypoglycemic rate % week 4: fasting blood glucose
Experimental: as §1
The random blood glucose of mice in the normal control group, model control group, test substance administration group and positive control group were determined on the 7th, 14th, 21st, 28th day (9: 00-10:00) every week after the first administration, and food was removed and after 6 hours of starvation, the fasting blood glucose in each group was measured. Free drinking during the hunger process. The rate of decrease of blood glucose was calculated according to the following formula: Average hypoglycemic rate %=(Blood glucose of model control group−Blood glucose of administration group)/Model control group×100%

SD rats = test: Acute administration of A28 at multiple doses, urinary glucose of SD rats; format: in vivo, rat; conditions: within 24 h
Experimental: (1) 72 normal male SD rats were selected and randomly divided into 9 groups according to body weight and blood glucose, 8 in each group. […] After oral gavage, the rats were placed in rats metabolic cages, and urine was collected after 24 h, and the urine volume was recorded, then preserved under −20° C. Rats take food and water freely during the experimental period.
(2) Index Determination: Glucose levels in urine are measured by the glucose assay kit.

db/db mice [3] = test: Chronic administration, glycosylated hemoglobin level in db/db mice; format: in vivo, mouse; conditions: for HbA1c Decline rate %: vs vehicle
Experimental: as §1
In the end of the above experiment, the orbital blood was taken from animals of each group and divided into two tubes, one was centrifuged to take blood cells for the determination of glycated hemoglobin content, the other tube was added with 25 μL EDTA in advance, centrifuged and the supernatant was taken to determine the indexes such as triglyceride (TG), total cholesterol (TC), total protein (TP), albumin, low density lipoprotein (LDL), high density lipoprotein (HDL), non-esterified fatty acid (NEFA) and so on.

C57BL/6J mice = test: Acute administration of A28 at multiple doses, oral glucose tolerance of C57BL/6J mice; format: in vivo, mouse; conditions: C57BL/6J mice OGTT; for Blood glucose level 0: before sugar
Experimental: (1) Experimental Methods: 56 C57BL/6J mice were selected and starved for 6 h, took water freely, then randomly divided into 7 groups according to body weight and random blood glucose, 8 rats in each group. […] Average hypoglycemic rate %=(AUC0-120 min of solvent control group−AUC0-120 min of administration group)/(AUC0-120 min of solvent control group−AUC0-120 min of blank control group)*100%

Compound: CCOc1ccc(Cc2cc([C@@H]3O[C@H](CO)[C@@H](O)[C@H](O)[C@H]3O)ccc2Cl)cc1 [Dapa]
- Insulin AUC (db/db mice [1]; dose 1 mg/kg): 27.89 ± 3.63
- Insulin (ng/ml) 0 min (db/db mice [1]; dose 1 mg/kg): 12.92 ± 1.17 ng/mL
- Insulin (ng/ml) 15 min (db/db mice [1]; dose 1 mg/kg): 35.99 ± 5.34 ng/mL
- Insulin (ng/ml) 30 min (db/db mice [1]; dose 1 mg/kg): 29.85 ± 4.97 ng/mL
- Insulin (ng/ml) 60 min (db/db mice [1]; dose 1 mg/kg): 24.33 ± 2.90 ng/mL
- Insulin (ng/ml) pre (db/db mice [1]; dose 1 mg/kg): 8.05 ± 1.10 ng/mL
- Insulin AUC (db/db mice [1]; dose 3 mg/kg): 22.69 ± 2.89
- Insulin (ng/ml) 0 min (db/db mice [1]; dose 3 mg/kg): 8.41 ± 1.07 ng/mL
- Insulin (ng/ml) 15 min (db/db mice [1]; dose 3 mg/kg): 21.29 ± 3.11 ng/mL
- Insulin (ng/ml) 30 min (db/db mice [1]; dose 3 mg/kg): 22.60 ± 3.22 ng/mL
- Insulin (ng/ml) 60 min (db/db mice [1]; dose 3 mg/kg): 31.36 ± 5.44 ng/mL
- Insulin (ng/ml) pre (db/db mice [1]; dose 3 mg/kg): 8.15 ± 0.91 ng/mL
- fasting blood glucose week 1 (db/db mice [2]; 1 mg/kg once daily oral): 9.4 ± 0.6 mmol/L
- fasting blood glucose week 2 (db/db mice [2]; 1 mg/kg once daily oral): 9.0 ± 0.6 mmol/L
- fasting blood glucose week 3 (db/db mice [2]; 1 mg/kg once daily oral): 10.0 ± 1.0 mmol/L
- fasting blood glucose week 4 (db/db mice [2]; 1 mg/kg once daily oral): 9.7 ± 0.7 mmol/L
- fasting blood glucose Pre (db/db mice [2]; 1 mg/kg once daily oral): 14.0 ± 1.0 mmol/L
- fasting blood glucose week 1 (db/db mice [2]; 3 mg/kg once daily oral): 8.1 ± 0.6 mmol/L
- fasting blood glucose week 2 (db/db mice [2]; 3 mg/kg once daily oral): 7.7 ± 0.6 mmol/L
- fasting blood glucose week 3 (db/db mice [2]; 3 mg/kg once daily oral): 8.6 ± 0.4 mmol/L
- fasting blood glucose week 4 (db/db mice [2]; 3 mg/kg once daily oral): 7.8 ± 0.4 mmol/L
- fasting blood glucose Pre (db/db mice [2]; 3 mg/kg once daily oral): 13.8 ± 1.2 mmol/L
- Hypoglycemic rate % week 1 (db/db mice [2]; 1 mg/kg once daily oral): 30.3%
- Hypoglycemic rate % week 2 (db/db mice [2]; 1 mg/kg once daily oral): 59.0%
- Hypoglycemic rate % week 3 (db/db mice [2]; 1 mg/kg once daily oral): 43.9%
- Hypoglycemic rate % week 4 (db/db mice [2]; 1 mg/kg once daily oral): 39.5%
- Hypoglycemic rate % week 1 (db/db mice [2]; 3 mg/kg once daily oral): 39.8%
- Hypoglycemic rate % week 2 (db/db mice [2]; 3 mg/kg once daily oral): 65.1%
- Hypoglycemic rate % week 3 (db/db mice [2]; 3 mg/kg once daily oral): 51.6%
- Hypoglycemic rate % week 4 (db/db mice [2]; 3 mg/kg once daily oral): 51.0%
- Total sugar excretion (SD rats; oral 1 mg/kg): 706.69 ± 39.98 mg/100 g
- Urine concentration (SD rats; oral 1 mg/kg): 313.13 ± 16.92 mmol/L
- Urine volume (SD rats; oral 1 mg/kg): 31.38 ± 1.99 mL
- Total sugar excretion (SD rats; oral 3 mg/kg): 859.30 ± 41.55 mg/100 g
- Urine concentration (SD rats; oral 3 mg/kg): 327.16 ± 24.63 mmol/L
- Urine volume (SD rats; oral 3 mg/kg): 36.88 ± 1.55 mL
- HbA1c (%) (db/db mice [3]; dose 1 mg/kg): 5.79 ± 0.32 %
- HbA1c Decline rate % (db/db mice [3]; dose 1 mg/kg): 23.7%
- HbA1c (%) (db/db mice [3]; dose 3 mg/kg): 5.32 ± 0.26 %
- HbA1c Decline rate % (db/db mice [3]; dose 3 mg/kg): 29.9%
- AUC0-2 h (C57BL/6J mice; oral 0.3 mg/kg): 20.9 ± 1.6 mmol·h/L
- Average hypoglycemic rate % (0-2 h) (C57BL/6J mice; oral 0.3 mg/kg): 4.9%
- Blood glucose level 15 min (C57BL/6J mice; oral 0.3 mg/kg): 13.4 ± 2.3 mmol/L
- Blood glucose level 30 min (C57BL/6J mice; oral 0.3 mg/kg): 12.1 ± 1.0 mmol/L
- Blood glucose level 60 min (C57BL/6J mice; oral 0.3 mg/kg): 10.6 ± 1.0 mmol/L
- Blood glucose level 90 min (C57BL/6J mice; oral 0.3 mg/kg): 9.3 ± 1.1 mmol/L
- Blood glucose level 120 min (C57BL/6J mice; oral 0.3 mg/kg): 8.8 ± 0.8 mmol/L
- Blood glucose level 0 (C57BL/6J mice; oral 0.3 mg/kg): 7.1 ± 0.4 mmol/L
- AUC0-2 h (C57BL/6J mice; oral 1 mg/kg): 19.3 ± 1.3 mmol·h/L
- Average hypoglycemic rate % (0-2 h) (C57BL/6J mice; oral 1 mg/kg): 12.4%
- Blood glucose level 15 min (C57BL/6J mice; oral 1 mg/kg): 12.3 ± 1.1 mmol/L
- Blood glucose level 30 min (C57BL/6J mice; oral 1 mg/kg): 12.0 ± 1.1 mmol/L
- Blood glucose level 60 min (C57BL/6J mice; oral 1 mg/kg): 9.1 ± 1.1 mmol/L
- Blood glucose level 90 min (C57BL/6J mice; oral 1 mg/kg): 8.4 ± 0.9 mmol/L
- Blood glucose level 120 min (C57BL/6J mice; oral 1 mg/kg): 8.5 ± 0.9 mmol/L
- Blood glucose level 0 (C57BL/6J mice; oral 1 mg/kg): 6.5 ± 0.9 mmol/L
- AUC0-2 h (C57BL/6J mice; oral 3 mg/kg): 18.2 ± 1.6 mmol·h/L
- Average hypoglycemic rate % (0-2 h) (C57BL/6J mice; oral 3 mg/kg): 17.5%
- Blood glucose level 15 min (C57BL/6J mice; oral 3 mg/kg): 11.6 ± 0.9 mmol/L
- Blood glucose level 30 min (C57BL/6J mice; oral 3 mg/kg): 11.6 ± 1.1 mmol/L
- Blood glucose level 60 min (C57BL/6J mice; oral 3 mg/kg): 8.9 ± 1.4 mmol/L
- Blood glucose level 90 min (C57BL/6J mice; oral 3 mg/kg): 7.9 ± 1.1 mmol/L
- Blood glucose level 120 min (C57BL/6J mice; oral 3 mg/kg): 7.0 ± 0.6 mmol/L
- Blood glucose level 0 (C57BL/6J mice; oral 3 mg/kg): 6.1 ± 1.0 mmol/L
